Experiment [1] deals with histone acetylation. The experiment can be described thus: Histone acetylation by western blot in primary human erythroblasts. The following applies: 1 μM or 5 μM, 24 hours. It is filed as cell-based. The source says: The EpiQuick Total Histone Extraction kit (Epigentek) was used to isolate histones. Histone lysates were size separated on Bolt 4–12% Bis-Tris gradient gels (Life Technologies), transferred to polyvinylidene difluoride membrane and detected using standard western blotting technique. GATA2 protein was detected by lysing cells in RIPA denaturing buffer supplemented with protease inhibitors followed by detection using a Wes capillary electrophoresis system (Protein Simple) or western blotting on nitrocellulose membrane. Antibodies used for western blotting: Anti-GATA2 [clone EPR2822(2)] (Abcam), anti-ACTB [clone 1E35] (Cell Signaling Technology), anti-H3K9/14 [catalog number 17–615] (EMD Millipore), anti-H3K56ac [clone EPR996Y] (Abcam), anti-H3K79 [catalog number 07–750] (EMD Millipore), anti-H2BK5 [catalog number 2574] (Cell Signaling Technology), anti-H3K9me3 [catalog number 07–442] (EMD Millipore), and anti-total-H4 [clone 62-141-13] (EMD Millipore).
Next, ACY-957’s ability to inhibit HDAC activity in primary hematopoietic progenitors derived from human bone marrow was investigated. […]
A general note: Immunoblotting shows a protein as a band on a membrane.

The subject of experiment [2] is HBG mRNA. The experiment can be described thus: HBG induction in GATA2 knockdown BM cells. The note with it: 1 μM, 4 days, CS1 expansion media. It is filed as cell-based, human. As for the experimental part: shRNA experiments were conducted using the RNAi consortium (TRC) TRC1.5 vector, also known as pLKO.1-puro (Sigma). Five vectors containing shRNA targeting GATA2 were screened in expanded BM cells and the two hairpins yielding the greatest knockdown of GATA2 mRNA were selected for further use: shG2-1, TRCN0000019264 and shG2-2, TRCN0000019265. […] Lentiviral supernatants were produced in the 293T cell line using shRNA vectors, viral packaging mix (Sigma, SHP001), and TransIT-293 transfection reagent (Mirus Bio, Madison, WI). BM cells were grown for 3 days in CS1 expansion media, and then transduced using lentiviral supernatant’s supplemented with 5 μg/mL of polybrene under room temperature centrifugation at 1200 x g for 75 minutes. Transduced cells were grown for two days to allow for expression of construct, followed by selection for two days in 1 μg/mL of puromycin. The GATA2 overexpression vector (oeG2) was constructed by removing the GFP cassette of the pLKO.1-puro-CMV-TurboGFP vector (Sigma, SHC003) at the 5' NheI and 3' PstI cloning sites and replacing it with the full-length GATA2 transcript sequence (Refseq NM_001145661) (GenScript, Piscataway, NJ). pLKO.1-puro-CMV-TurboGFP vector was used as a control (oeGFP). BM cells were grown for 3 days in CS1 expansion media, and then transduced using the RetroNectin-bound virus method according to manufacturer’s protocol. […]

For the compound `Nc1ccc(-c2cccs2)cc1NC(=O)c1ccc2nc(N3CCNCC3)ccc2c1` [ACY-957], in experiment [1], the “acetylation of H3K9/14ac, H3K56, H3K79ac and H2BK5ac” value is reported as “dose-dependent accumulation of acetylation”; the “histone H3 lysine 9 tri-methylation (H3K9me3)” value was “not affected”. In addition, in experiment [2], the “reduction of the magnitude of HBG mRNA induction in shG2-1 and shG2-2 cells relative to shCtrl cells” value amounted to 25%.

Values taken from PMC4830539, “Chemical Inhibition of Histone Deacetylases 1 and 2 Induces Fetal Hemoglobin through Activation of GATA2” (PLoS ONE, 2016).
